The results in this text go back to patent US20250171404A1, “PCNA INHIBITORS AND USES THEREOF” (CITY OF HOPE, priority 2022, published 2025).

Data set [1] has as its system PCNA and MCM7 on chromatin, MDA-MB-468 cells. In words: Cell fractionation, chromatin-bound PCNA and MCM7. The data set is classed as cell-based, human. Particulars: 5, 50, or 500 nM, 24 h. As for the experimental part:
FIGS. 7A-7E. Transcription dependent effect on DNA replication and damage. FIG. 7A: Left: Schematic of the cell fractionation procedure. Right: MDA-MB-468 cells were treated by increasing concentrations of AOH1996 (5, 50, or 500 nM) for 24 h. Cells treated with DMSO were used as control. Whole cell extract (WCE) and protein fractions associated with actively transcribed chromatin (CB:RNA+) or with low or non-transcribed chromatin (CB:RNA−) were analyzed by Western blot using antibodies against PCNA, CAF-1, and MCM7. FIG. 7B: Synchronized cancer cells were sequentially incubated in the presence of CldU (light grey) and IdU (dark grey) before and after AOH1996 treatment, respectively. […] Middle and Right: Lengths of CldU (light grey) and IdU (dark grey) incorporated DNA segments measured for more than 30 independent DNA strands from the indicated cancer cell type were averaged and graphed ±S.D. FIG. 7C: Whole cell lysates were extracted from SK-N-AS cells homozygous of the wildtype RPB1 allele or the APIM-mutant allele. Histone H2A.X and γH2A.X was analyzed by Western blot after treatment with or without AOH1996 overnight. FIG. 7D: Histone H2A.X and γH2A.X in whole cell lysates from SK-N-AS cells were analyzed by Western blot after treatment with 500 nM AOH1996 and/or 50 μM DRB overnight. […]

A short description of data set [2]: Compound metabolism in liver microsome. Conditions: compared with AOH1160. It counts as in vitro ADME, human. As for the experimental part:
FIGS. 12A-12E. AOH1996 metabolism and in vivo pharmacokinetics. FIG. 12A: Illustration of AOH1160 degradation by carboxyl esterase-mediated cleavage or by hydroxylation. FIG. 12B: Chromatogram of liver microsome reaction mixtures of AOH1160 and AOH1996. The metabolites shown in FIG. 12A are indicated above their corresponding peaks. FIG. 12C: An aliquot of the liver microsome reaction mixture of AOH1996 was taken after various incubation times in the presence or absence of NADPH as the energy source. AOH1996 concentrations, determined by LC/MS-MS, as a percentage of the input concentration were graphed. FIG. 12D: After oral administration, the plasma concentrations of AOH1996 from three male and three female ES1e/SCID mice at the indicated time points were averaged and graphed ±S.D. The inset contains PK parameters determined by a standard noncompartmental method. FIG. 12E: A similar PK study of AOH1996 was performed in dogs.
Measurement of compound metabolism in liver microsome. AOH1160 analogs were incubated in human liver microsomes in the presence or absence of NADPH at 37° C. An aliquot of the reaction mixture was taken after various incubation times. Compound concentration was determined by liquid chromatography-tandem mass spectrometry (LC-MS/MS) as previously described (Gu et al., 2018).

Molecules are shown by their SMILES.

For the molecule `COc1cccc(Oc2ccccc2NC(=O)CNC(=O)c2cccc3ccccc23)c1` [AOH1996, N-(2-((2-(3-methoxyphenoxy)phenyl)amino)-2-oxoethyl)-1-naphthamide], the “association of PCNA and MCM7 with chromatin” value in data set [1] is “caused dissociation of PCNA and MCM7 from the actively transcribed open chromatin regions”. In addition, in data set [2], the metabolic stability entry was “metabolically more stable than AOH1160”.
